Experimental findings from patent publication US11447465B2, “Pharmaceutical compounds for treatment of medical disorders” (Achillion Pharmaceuticals, Inc., priority 2017, dated 2022) are described below.

Where two headings read alike, the source gives them in different places.

The test addresses Human Factor D (Homo sapiens (Human), UniProt P00746). As to the kind of experiment: Human Factor D Assay. Type of test: biochemical. As to the method: Human Factor D (purified from human serum, Complement Technology, Inc.) at 80 nM final concentration is incubated with test compound at various concentrations for 5 min at room temperature in 50 mM Tris, 1M NaCl, pH 7.5. A synthetic substrate Z-L-Lys-SBzl and DTNB (Ellman's reagent) are added to final concentrations of 100 μM each. Absorbance at 405 nm (A405) is recorded at 30 second intervals for 30 min using a microplate spectrophotometer. IC50 values are calculated by nonlinear regression of Complement Factor D reaction rates as a function of test compound concentration.

The mark [1] stands for this setting: Table 5, Human Factor D 80 nM, substrate Z-L-Lys-SBzl, read-out: IC50 (Stars).

Human Factor D, sequence (P00746 26-253): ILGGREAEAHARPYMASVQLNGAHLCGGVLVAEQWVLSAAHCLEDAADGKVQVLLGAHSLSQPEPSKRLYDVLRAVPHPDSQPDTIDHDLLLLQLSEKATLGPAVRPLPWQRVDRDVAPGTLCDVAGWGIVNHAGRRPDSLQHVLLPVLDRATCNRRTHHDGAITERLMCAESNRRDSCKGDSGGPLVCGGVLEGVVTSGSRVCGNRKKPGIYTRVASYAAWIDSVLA

With `Cc1ccc(Br)nc1NC(=O)[C@@H]1C[C@@]2(CNC(=O)COCCOCCNC(=O)COCCOCCNC(=O)CC[C@H](NC(=O)CCCCCCCCCCCCCCCCC(=O)O)C(=O)O)C[C@H]2N1C(=O)Cn1nc(C(N)=O)c2cc(Nc3cccnc3)ccc21` [Compound T-71, (S)-1-((1R,3S,5R)-3-((6-bromo-3-methylpyridin-2-yl)carbamoyl)-2-(2-(3-carbamoyl-5-(pyridin-3-ylamino)-1H-indazol-1-yl)acetyl)-2-azabicyclo[3.1.0]hexan-5-yl)-24-carboxy-3,12,21,26-tetraoxo-5,8,14,17-tetraoxa-2,11,20,25-tetraazatritetracontan-43-oic acid], the IC50 (Table 7, read-out: IC5 (Stars)) was less than 1000 nM.

Turning to `CC(=O)c1cn(CC(=O)N2[C@H]3C[C@@]3(CN3CCN(C)CC3)C[C@H]2C(=O)NCc2cccc(Cl)c2F)c2cc(P(=O)(O)O)ccc12` [Compound T-45, (3-acetyl-1-(2-((1S,3S,5S)-3-((3-chloro-2-fluorobenzyl)carbamoyl)-5-((4-methylpiperazin-1-yl)methyl)-2-azabicyclo[3.1.0]hexan-2-yl)-2-oxoethyl)-1H-indol-6-yl)phosphonic acid], the IC50 under setting [1] fell in the range of 1000 to 10000 nM.

`COc1ncc(-c2cc(CC(=O)N3C[C@H](F)C[C@H]3C(=O)Nc3cccc(-c4ccccc4Cl)c3F)cc(-c3cnc(OC)nc3)c2)cn1` [Compound T-110, (2S,4R)-1-(2-(3,5-bis(2-methoxypyrimidin-5-yl)phenyl)acetyl)-N-(2′-chloro-2-fluoro-[1,1′-biphenyl]-3-yl)-4-fluoropyrrolidine-2-carboxamide]: the IC50 (Table 7, read-out: IC5 (Stars)) was more than 10000 nM.

For `CC(=O)c1nn(CC(=O)N2[C@H](C(=O)Nc3nc(Br)ccc3C)C[C@@]3(Cn4cc(C5CC5)nn4)C[C@@H]23)c2cnccc12` [Compound T-83, (1R,3S,5R)-2-(2-(3-acetyl-1H-pyrazolo[3,4-c]pyridin-1-yl)acetyl)-N-(6-bromo-3-methylpyridin-2-yl)-5-((4-cyclopropyl-1H-1,2,3-triazol-1-yl)methyl)-2-azabicyclo[3.1.0]hexane-3-carboxamide], the IC50 (Table 7, read-out: IC5 (Stars)) was less than 1000 nM.

`CC(=O)c1nn(CC(=O)N2[C@H](C(=O)Nc3nc(Br)ccc3C)C[C@@]3(CN(C)C)C[C@@H]23)c2cc(C(=O)NS(=O)(=O)C3CC3)ccc12` [Compound T-49, 3-acetyl-1-(2-((1R,3S,5R)-3-((6-bromo-3-methylpyridin-2-yl)carbamoyl)-5-((dimethylamino)methyl)-2-azabicyclo[3.1.0]hexan-2-yl)-2-oxoethyl)-N-(cyclopropylsulfonyl)-1H-indazole-6-carboxamide]: under setting [1], the IC50 is less than 1000 nM.

As for `CC(=O)c1nn(CC(=O)N2C[C@H](F)C[C@H]2C(=O)Nc2cccc(Br)n2)c2ccc(S(C)(=N)=O)cc12` (stereo partly drawn) [Compound T-3, (2S,4R)-1-(2-(3-acetyl-5-(S-methylsulfonimidoyl)-1H-indazol-1-yl)acetyl)-N-(6-bromopyridin-2-yl)-4-fluoropyrrolidine-2-carboxamide], under setting [1], the IC50 was less than 1000 nM.

Turning to `Cc1ccc(Br)nc1NC(=O)[C@@H]1C[C@@]2(C)C[C@H]2N1C(=O)Cn1nc(NCCC(=O)O)c2ccncc21` [Compound T-89, 3-((1-(2-((1R,3S,5R)-3-((6-bromo-3-methylpyridin-2-yl)carbamoyl)-5-methyl-2-azabicyclo[3.1.0]hexan-2-yl)-2-oxoethyl)-1H-pyrazolo[3,4-c]pyridin-3-yl)amino)propanoic acid], the IC50 (Table 7, read-out: IC5 (Stars)) was more than 10000 nM.

For the compound `CCP(=O)(O)COc1ccc2c(C(C)=O)nn(CC(=O)N3C[C@H](F)C[C@H]3C(=O)Nc3nc(Br)ccc3C)c2c1` [Compound T-79, (((3-acetyl-1-(2-((2S,4R)-2-((6-bromo-3-methylpyridin-2-yl)carbamoyl)-4-fluoropyrrolidin-1-yl)-2-oxoethyl)-1H-indazol-6-yl)oxy)methyl)(ethyl)phosphinic acid], the IC50 (Table 7, read-out: IC5 (Stars)) was less than 1000 nM.

Turning to `CC(=O)c1cn(CC(=O)N2C[C@H](F)C[C@H]2C(=O)Nc2cccc(Br)n2)c(C)n1` [Compound T-20, (2S,4R)-1-(2-(4-acetyl-2-methyl-1H-imidazol-1-yl)acetyl)-N-(6-bromopyridin-2-yl)-4-fluoropyrrolidine-2-carboxamide], the IC50 under setting [1] is more than 10000 nM.

As for `CC(=O)c1nn(CC(=O)N2[C@H](C(=O)Nc3nc(Br)ccc3C)C[C@@]3(C)C[C@@H]23)c2cc3nc(C)oc3cc12` [Compound T-93, (1R,3S,5R)-2-(2-(3-acetyl-6-methyl-1H-oxazolo[5,4-f]indazol-1-yl)acetyl)-N-(6-bromo-3-methylpyridin-2-yl)-5-methyl-2-azabicyclo[3.1.0]hexane-3-carboxamide], the IC50 (Table 7, read-out: IC5 (Stars)) is less than 1000 nM.

Take `CC(=O)c1nn(CC(=O)N2C[C@H]3C[C@H]3[C@H]2C(=O)Nc2cccc(Br)n2)c2cc(S(C)(=N)=O)ccc12` (stereo partly drawn) [Compound T-7, (1R,2S,5S)-3-(2-(3-acetyl-6-(S-methylsulfonimidoyl)-1H-indazol-1-yl)acetyl)-N-(6-bromopyridin-2-yl)-3-azabicyclo[3.1.0]hexane-2-carboxamide]: the IC50 under setting [1] was less than 1000 nM.

In the case of `C#CCNC(=O)c1nn(CC(=O)N2[C@H](C(=O)Nc3nc(Br)ccc3C)C[C@@]3(C)C[C@@H]23)c2ccc(-c3cnc(C)nc3)cc12` [Compound T-121, 1-(2-((1R,3S,5R)-3-((6-bromo-3-methylpyridin-2-yl)carbamoyl)-5-methyl-2-azabicyclo[3.1.0]hexan-2-yl)-2-oxoethyl)-5-(2-methylpyrimidin-5-yl)-N-(prop-2-yn-1-yl)-1H-indazole-3-carboxamide], for the setting “Table 7, read-out: IC5 (Stars)”, the IC50 is less than 1000 nM.

For `CC(=O)c1nn(CC(=O)N2C[C@H]3C[C@H]3[C@H]2C(=O)Nc2nc(Br)ccc2C)c2cc(C)sc12` [Compound T-2, (1R,2S,5S)-3-(2-(3-acetyl-5-methyl-1H-thieno[3,2-c]pyrazol-1-yl)acetyl)-N-(6-bromo-3-methylpyridin-2-yl)-3-azabicyclo[3.10]hexane-2-carboxamide], under setting [1], the IC50 was less than 1000 nM.

Take `Cc1ccc(Br)nc1NC(=O)[C@@H]1C[C@@]2(C)C[C@H]2N1C(=O)Cn1nc(C(N)=O)c2cc(NC(=O)C3CCCC3(F)F)ccc21` (stereo partly drawn) [Compound T-65, 1-(2-((1R,3S,5R)-3-((6-bromo-3-methylpyridin-2-yl)carbamoyl)-5-methyl-2-azabicyclo[3.1.0]hexan-2-yl)-2-oxoethyl)-5-(2,2-difluorocyclopentane-1-carboxamido)-1H-indazole-3-carboxamide]: the IC50 (Table 7, read-out: IC5 (Stars)) is less than 1000 nM.

Consider `CC(=O)c1nn(CC(=O)N2[C@H](C(=O)Nc3nc(Br)ccc3C)C[C@@]3(C)C[C@@H]23)c2c(S(C)=N)cccc12` (stereo partly drawn) [Compound T-40, (1R,3S,5R)-2-(2-(3-acetyl-7-(S-methylsulfinimidoyl)-1H-indazol-1-yl)acetyl)-N-(6-bromo-3-methylpyridin-2-yl)-5-methyl-2-azabicyclo[3.1.0]hexane-3-carboxamide], for which the IC50 under setting [1] is less than 1000 nM.

For `CC(=O)c1cc(C(=O)NCc2cnc(C)nc2)n(CC(=O)N2C[C@H](F)C[C@H]2C(=O)Nc2cccc(Br)n2)c1` [Compound T-19, 4-acetyl-1-(2-((2S,4R)-2-((6-bromopyridin-2-yl)carbamoyl)-4-fluoropyrrolidin-1-yl)-2-oxoethyl)-N-((2-methylpyrimidin-5-yl)methyl)-1H-pyrrole-2-carboxamide], the IC50 under setting [1] is less than 1000 nM.
